Source: patent publication US8192962B2, “Processes for detecting toxic substances” (Daikin Industries, Ltd., priority 2001, dated 2012)

Test system: Metabolism protein genes
Experiment: DNA chip mRNA expression in yeast, metabolism protein genes (Table 7)
Assay type: cell-based, Saccharomyces cerevisiae S288C
Experimental: Yeast (Saccharomyces cerevisiae S288C (α SUC2mal mel gap2 CUP1)) were incubated at 25° C. on YPD medium (yeast extract 1%, polypepton 2%, glucose 2%). One of toxic chemical substances was added to the cells at logarithmic growth phase, and the cells were further incubated for two hours. Cells were cultured without any chemical substance in the same condition, and were used as control. Concentrations of the chemical substances were defined to inhibit the growth of the yeast but not lead to death.
After completion of the incubation, the culture was centrifuged to collect the cells. To the cells, sodium acetate buffer (50 mM sodium acetate, 10 mM EDTA, 1% SDS) was added, and the mixture was shaken at 65° C. for five minutes, followed by returning to room temperature, and obtaining the supernatant, of which the procedures were repeated two times. To the supernatant, ½ amount of a solution of phenol/chloroform was added, and the mixture was centrifuged to give a supernatant, which was added with an equal amount of chloroform, and the mixture was centrifuged to give a supernatant. To the supernatant, an equal amount of isopropanol containing 0.3 M sodium acetate was added, and the mixture was allowed to stand at room temperature for 30 minutes, after which the mixture was centrifuged to give a sediment of the whole RNAs. Seventy % ethanol was added to the sediment, and the mixture was again centrifuged to give a sediment, which was then dried and dissolved in water. mRNA was isolated from the whole RNAs as followings. In view of the fact that a poly A chain is attached to the 3′ terminus of mRNA, a polynucleotide having a poly T structure which was immobilized on the surface of latex beads was used to trap the mRNA, and then the mRNA was washed and eluted with spine column (Oligotex-dT30<Super>mRNA Purification Kit, Takara). Reverse transcription of the mRNA was conducted with a reverse transcriptase (Super Script II Reverse Transcriptase; catalogue No. 18064-014, GibcoBRL) using fluorescence-labeled nucleotides to give cDNAs that were introduced with Cy3-dUTP or Cy5-dUTP during the reverse transcription.
The labeled cDNAs were dissolved in TE buffer (10mM Tris-HCl/1 mM EDTA, pH8.0), and the solution was dropped on the DNA chip containing the whole genes of yeast (DNA Chip Research Inc. Japan) so that the cDNAs were hybridized on the DNA chip at 65° C. for over 12 hours. The fluoresces intensity of the DNA chip was read with a scanner, and the ratio relative to the fluorescence intensity resulting from the absence of chemical substance was estimated as the following, which is shown in Tables 1 to 9: […]

For Oc1cc(Cl)c(Cl)cc1Cl [(6), 2,4,5-trichlorophenol], which “The level of expressed mRNA in the presence of chemical substance/The level of expressed mRNA in the absence of chemical substance” value (yeast gene YFL056C) is on record?
Its value is 0.6.

And the “The level of expressed mRNA in the presence of chemical substance/The level of expressed mRNA in the absence of chemical substance” value (yeast gene YFL057C)?
Its value is 1.2.

What about the “The level of expressed mRNA in the presence of chemical substance/The level of expressed mRNA in the absence of chemical substance” value (yeast gene YFR047C) of the same molecule?
Its value is 2.0.

And the “level of expressed mRNA in the presence/in the absence of chemical substance” value (yeast gene YGL012W)?
The value was 1.6.

What about the “The level of expressed mRNA in the presence of chemical substance/The level of expressed mRNA in the absence of chemical substance” value (yeast gene YGL022W) of the same molecule?
Its value is 0.9.

And the “level of expressed mRNA in the presence/in the absence of chemical substance” value (yeast gene YGL115W)?
Its value is 1.2.

What about the “The level of expressed mRNA in the presence of chemical substance/The level of expressed mRNA in the absence of chemical substance” value (yeast gene YGL126W) of the same molecule?
The value was 1.6.

And the “level of expressed mRNA in the presence/in the absence of chemical substance” value (yeast gene YGL205W)?
Its value is 1.6.

And the “The level of expressed mRNA in the presence of chemical substance/The level of expressed mRNA in the absence of chemical substance” value (yeast gene YGL209W)?
Its value is 1.0.

And the “The level of expressed mRNA in the presence of chemical substance/The level of expressed mRNA in the absence of chemical substance” value (yeast gene YGL248W)?
Its value is 2.7.

And the “The level of expressed mRNA in the presence of chemical substance/The level of expressed mRNA in the absence of chemical substance” value (yeast gene YGL253W)?
The value was 2.4.

And the “The level of expressed mRNA in the presence of chemical substance/The level of expressed mRNA in the absence of chemical substance” value (yeast gene YGR037C)?
The value was 1.1.

And the “The level of expressed mRNA in the presence of chemical substance/The level of expressed mRNA in the absence of chemical substance” value (yeast gene YGR055W)?
Its value is 1.1.

And the “level of expressed mRNA in the presence/in the absence of chemical substance” value (yeast gene YGR096W)?
Its value is 1.7.

And the “level of expressed mRNA in the presence/in the absence of chemical substance” value (yeast gene YGR191W)?
Its value is 1.1.

And the “The level of expressed mRNA in the presence of chemical substance/The level of expressed mRNA in the absence of chemical substance” value (yeast gene YGR194C)?
The value was 1.9.

And the “level of expressed mRNA in the presence/in the absence of chemical substance” value (yeast gene YGR204W)?
The value was 0.6.

And the “The level of expressed mRNA in the presence of chemical substance/The level of expressed mRNA in the absence of chemical substance” value (yeast gene YGR244C)?
Its value is 2.6.

What about the “The level of expressed mRNA in the presence of chemical substance/The level of expressed mRNA in the absence of chemical substance” value (yeast gene YGR256W) of the same molecule?
Its value is 6.2.

What about the “The level of expressed mRNA in the presence of chemical substance/The level of expressed mRNA in the absence of chemical substance” value (yeast gene YGR282C) of the same molecule?
Its value is 2.2.

What about the “level of expressed mRNA in the presence/in the absence of chemical substance” value (yeast gene YHR025W) of the same molecule?
Its value is 0.8.

What about the “The level of expressed mRNA in the presence of chemical substance/The level of expressed mRNA in the absence of chemical substance” value (yeast gene YHR111W) of the same molecule?
The value was 1.3.

What about the “level of expressed mRNA in the presence/in the absence of chemical substance” value (yeast gene YHR123W) of the same molecule?
The value was 1.0.

What about the “The level of expressed mRNA in the presence of chemical substance/The level of expressed mRNA in the absence of chemical substance” value (yeast gene YHR137W) of the same molecule?
The value was 0.7.

What about the “The level of expressed mRNA in the presence of chemical substance/The level of expressed mRNA in the absence of chemical substance” value (yeast gene YHR174W) of the same molecule?
Its value is 1.5.

And the “The level of expressed mRNA in the presence of chemical substance/The level of expressed mRNA in the absence of chemical substance” value (yeast gene YHR176W)?
The value was 2.3.

What about the “level of expressed mRNA in the presence/in the absence of chemical substance” value (yeast gene YHR210C) of the same molecule?
The value was 0.7.

What about the “level of expressed mRNA in the presence/in the absence of chemical substance” value (yeast gene YIL006W) of the same molecule?
The value was 0.3.

What about the “The level of expressed mRNA in the presence of chemical substance/The level of expressed mRNA in the absence of chemical substance” value (yeast gene YIL045W) of the same molecule?
Its value is 1.7.

And the “The level of expressed mRNA in the presence of chemical substance/The level of expressed mRNA in the absence of chemical substance” value (yeast gene YIL107C)?
Its value is 1.0.

And the “The level of expressed mRNA in the presence of chemical substance/The level of expressed mRNA in the absence of chemical substance” value (yeast gene YIL154C)?
Its value is 1.1.

What about the “The level of expressed mRNA in the presence of chemical substance/The level of expressed mRNA in the absence of chemical substance” value (yeast gene YIL155C) of the same molecule?
Its value is 1.4.

What about the “The level of expressed mRNA in the presence of chemical substance/The level of expressed mRNA in the absence of chemical substance” value (yeast gene YIL167W) of the same molecule?
Its value is 7.7.

And the “The level of expressed mRNA in the presence of chemical substance/The level of expressed mRNA in the absence of chemical substance” value (yeast gene YIR034C)?
The value was 1.3.

What about the “The level of expressed mRNA in the presence of chemical substance/The level of expressed mRNA in the absence of chemical substance” value (yeast gene YIR036C) of the same molecule?
Its value is 0.7.

What about the “The level of expressed mRNA in the presence of chemical substance/The level of expressed mRNA in the absence of chemical substance” value (yeast gene YJL031C) of the same molecule?
The value was 1.6.

And the “The level of expressed mRNA in the presence of chemical substance/The level of expressed mRNA in the absence of chemical substance” value (yeast gene YJL068C)?
Its value is 1.1.

What about the “The level of expressed mRNA in the presence of chemical substance/The level of expressed mRNA in the absence of chemical substance” value (yeast gene YJL088W) of the same molecule?
Its value is 2.8.

And the “The level of expressed mRNA in the presence of chemical substance/The level of expressed mRNA in the absence of chemical substance” value (yeast gene YJL099W)?
The value was 2.0.

And the “level of expressed mRNA in the presence/in the absence of chemical substance” value (yeast gene YJL121C)?
Its value is 1.1.

And the “level of expressed mRNA in the presence/in the absence of chemical substance” value (yeast gene YJL167W)?
The value was 1.3.

What about the “The level of expressed mRNA in the presence of chemical substance/The level of expressed mRNA in the absence of chemical substance” value (yeast gene YJL172W) of the same molecule?
Its value is 3.8.

And the “The level of expressed mRNA in the presence of chemical substance/The level of expressed mRNA in the absence of chemical substance” value (yeast gene YJL219W)?
The value was 1.5.

What about the “The level of expressed mRNA in the presence of chemical substance/The level of expressed mRNA in the absence of chemical substance” value (yeast gene YJL221C) of the same molecule?
The value was 6.6.

What about the “level of expressed mRNA in the presence/in the absence of chemical substance” value (yeast gene YJR077C) of the same molecule?
The value was 0.9.

And the “The level of expressed mRNA in the presence of chemical substance/The level of expressed mRNA in the absence of chemical substance” value (yeast gene YJR137C)?
The value was 1.5.

And the “level of expressed mRNA in the presence/in the absence of chemical substance” value (yeast gene YJR143C)?
Its value is 0.6.

And the “The level of expressed mRNA in the presence of chemical substance/The level of expressed mRNA in the absence of chemical substance” value (yeast gene YJR148W)?
Its value is 2.0.

And the “The level of expressed mRNA in the presence of chemical substance/The level of expressed mRNA in the absence of chemical substance” value (yeast gene YJR155W)?
Its value is 1.4.
